Holding throughout (assay type): in vivo
The subject of data set [1] is Myzus persicae clone highly resistant to insecticide. Put plainly: Contact test on treated plant (pea seedling dip), synergist with neonicotinoid. To be noted: synergist 1 g/L, mortality assessed at 48 hours, Abbott's formula. On the procedure: Laboratory bred Myzus persicae clone highly resistant to insecticide, derived from a field collected population after control failure, mixed age apterous parthenogenetic females adults, were assayed for the test.
Four (4) different commercially available formulated insecticides were used and diluted as follow: • imidacloprid: 1000 mL of test solution was prepared diluting in water 20 μL of commercial formulation, containing 200 g/L of a.i., equivalent to 0.004 g of imidacloprid per liter of insecticidal solution; • thiacloprid: 1000 mL of test solution was prepared diluting in water 24 μL of commercial formulation containing 480 g/L of a.i, equivalent to 0.012 g of thiacloprid per liter of insecticidal solution;
The compounds of Example 1 and Example 2 were formulated in the form of emulsified concentrate (EC).
The following amount of the EC formulations were added to the above described insecticidal solution of insecticide to have a final concentration of synergist equal to 1 g/L:
20 mL of test formulations were used to wet by dipping for 5″ a small pea seedling (1-1.5 cm long). Seedlings were left at room temperature in a fume hood and allowed to dry for 15″. After drying 10-15 apterous parthenogenetic females were moved to the seedling and allowed to settle. Mortality produced by pyrethroids was assessed 24 hours later. Mortality produced by neonicotinoids was assessed 48 hours later.
Three replicates were executed each composed by 2 subreplicates (seedlings) and 60-90 specimens were used per test formulation.
In parallel with the test, the mortality of aphids in an untreated control replicate (seedlings dipped in water) was determined using the same conditions and methods.
The efficacy was calculated according the Abbott's formula: […]

Another data set deals with Musca domestica. Put plainly: Contact test on treated glass surfaces, synergist with cypermethrin. On the procedure: Laboratory bred Musca domestica species, 4-5 days old mixed sex imagoes derived from a field collected strain were assayed for the test. 1000 ml of test solutions were prepared diluting in water 6.06 grams of cypermethrin commercial formulation, equivalent to 0.224 g of cypermethrin per liter of insecticidal solution and a suitable amount of synergist such as to have a ratio between cypermethryn and synergists=1:13. The synergists were formulated in the form of emulsified concentrate (EC). The following amount of the formulations of synergist EC were added to the above described insecticidal solution of cypermethrin.
3.83 g of EC formulation containing 77.1% (w/w) of the compound of Example 2 (5-n-butyl-6-((prop-2-ynyloxy)methyl)benzo[d][1,3]dioxole)
3.57 g of EC formulation containing 83% (w/w) of the comparison compound 5-(but-2-ynyloxymethyl)-6-n-propyl-benzo[1,3]dioxole (EN126) corresponding to 2.95 g of the compound of the invention and of the comparison product per liter of test formulation
1 ml of each test formulation was applied to each individual grass surface of 100 cm^2 by means of a hand held pump sprayer on a scale measuring by 2 decimal precision, being the acceptable limit of divergence: +/−10%. The treated glass surfaces were left at room temperature for 24 hours after treatment and prior to be used. 40 mixed sex Musca domestica imagoes (20 males and 20 females) were selected and placed into a 500 cm^3 glass cylinders covered with an untreated glass surface until the start of the study. Five replicates were executed, altogether 200 houseflies (100 males and 100 females) were used per test formulation. At the beginning of the test, the untreated glass covering the glass cylinder was replaced with a glass surface treated with the test formulation. The exposure time was 30 minutes. After this period of time, the treated glass surfaces were removed and replaced with untreated ones. During the test water and food (water/sugar solution) were provided to the test insect inside the glass cylinders
In parallel with the test, the mortality of flies in an untreated control replicate was determined using the same conditions and methods. Throughout the control test, non-treated glass surfaces covered the glass cylinders. The maximum mortality rate allowed within the control group to consider the test representative was 10% after 24 hours. If above this value, the test was not considered representative and was repeated. During the trials, no deviance has been noted.
The test conditions were as follows: • temperature: 23-25° C. • relative humidity: min. 60% • light regime: 12 hrs dark/12 hrs natural illumination.
The reading intervals of the number of knocked down flies were: 10-20-30-40-50-60-90-120-180 minutes. Mortality was determined after 24 hours.
The efficacy was calculated according the following formula

A further data set concerns Blattella germanica. The data set is described as follows: Contact test on treated glass vials, synergist with cypermethrin. As to conditions: cypermethrin 120 μg/mL, synergist 1.0 g/L; for knock down: average of 4 repetitions. On the procedure:
Laboratory bred B. germanica species, mixed ages (pre-immaginal and imagoes) and mixed sex were assayed for the test.
An insecticide stock solution was prepared with 150 μL of cypermethrin commercial formulation and diluted to 15 μL/mL with technical acetone to a final volume of 10 mL. The solution contained 450 μg/mL of cypermethrin per liter of insecticidal solution
Stock solution of the compounds of Example 1 and Example 2 were prepared dissolving around 10 mg of EC formulations containing compounds of the Example 1 and Example 2 in technical acetone to have a final concentration of 1.365 μg/mL.
Stock solution (1650 μL) was diluted to 2250 μL with acetone or with stock of insecticide in acetone to have respectively a final concentration of 1 g/L of synergist (as active ingredient) or 0.12 g/L of cypermethrin+1 g/L of the compounds of Example 1 and Example 2. Insecticide alone was prepared adding 600 μL of stock solution to 1650 μL of acetone.
Glass vials (internal surface 35 cm^2) were treated with 350 μL of insecticide solution and allowed to dry in a fume hood on a vial rotator and used as soon as the acetone was fully evaporated.
B. germanica specimens were introduced singly in vials. 20 specimens were tested for each combination of product. The exposure time to product residues was 30 minutes. After this duration the specimens were transferred to an untreated vial ad provided with food and water.
In parallel within the test, a control study has been set up with the same conditions and methods using acetone only treated vials.
The test conditions were as follows: • temperature: 22-24° C. during knock down evaluation (t: 0-30′); 26° C. during mortality assessment (t: 24 h) • relative humidity: min. 60% • light regime: 8 hrs dark/16 hrs natural illumination.
The reading intervals of the number of knocked down and the number of dead insects were: 5-10-15-20-25-30 minutes. A final reading was done 24 hours after the starting of the exposure.
The calculation model of efficacy is according to Abbott's formula (Abbott W S (1925) A method for computing the effectiveness of an insecticide. J. Econ. Entomol. 18: 265-267):
The results are reported in the following Table 5 and represent an average of 4 repetitions.

Marks after values point to notes of the source that are not given here.

For the compound `N#C/N=C1\SCCN1Cc1ccc(Cl)nc1` [thiacloprid, reference compound], the “Efficacy of the tested compounds” value in data set [1] (thiacloprid (0.012 g per liter)) amounted to 36.242.
`O=[N+]([O-])NC1=NCCN1Cc1ccc(Cl)nc1` [Imidacloprid, imidacloprid, reference compound]: the “Efficacy of the tested compounds” value in data set [1] (Imidacloprid (0.004 g per liter)) is reported as 14.2.
For the compound `CC1(C)C(C=C(Cl)Cl)C1C(=O)OC(C#N)c1cccc(Oc2ccccc2)c1` (centres unmarked) [Cypermethrin, cypermethrin], the mortality by % in the data set on Musca domestica (24 h, 30 min exposure, cypermethrin formulation 6.06 g/l (0.224 g/l a.i.), cypermethrin:synergist 1:13) is reported as 61%. In addition, in the data set with Musca domestica (calculated from 24 h mortality against untreated control), the Efficacy % is on record as 58.95%. Besides, the “knock down by %” value was 6* % in the data set on Musca domestica (reading at 10′, 30 min exposure, cypermethrin formulation 6.06 g/l (0.224 g/l a.i.), cypermethrin:synergist 1:13); 46% with Musca domestica (reading at 20′, 30 min exposure, cypermethrin formulation 6.06 g/l (0.224 g/l a.i.), cypermethrin:synergist 1:13); 68% in the data set with Musca domestica (reading at 30′, 30 min exposure, cypermethrin formulation 6.06 g/l (0.224 g/l a.i.), cypermethrin:synergist 1:13); 83% with Musca domestica (reading at 40′, 30 min exposure, cypermethrin formulation 6.06 g/l (0.224 g/l a.i.), cypermethrin:synergist 1:13); 85% with Musca domestica (reading at 50′, 30 min exposure, cypermethrin formulation 6.06 g/l (0.224 g/l a.i.), cypermethrin:synergist 1:13); 85% with Musca domestica (reading at 60′, 30 min exposure, cypermethrin formulation 6.06 g/l (0.224 g/l a.i.), cypermethrin:synergist 1:13). The “knock down by %” value is on record as 82% in the data set with Musca domestica (reading at 90′, 30 min exposure, cypermethrin formulation 6.06 g/l (0.224 g/l a.i.), cypermethrin:synergist 1:13); 76% in the data set with Musca domestica (reading at 120′, 30 min exposure, cypermethrin formulation 6.06 g/l (0.224 g/l a.i.), cypermethrin:synergist 1:13); 73% in the data set with Musca domestica (reading at 180′, 30 min exposure, cypermethrin formulation 6.06 g/l (0.224 g/l a.i.), cypermethrin:synergist 1:13). In addition, the mortality (as a rule, the percentage killed) at 120 µg/mL in the data set with Blattella germanica (Blattella germanica, 24 h after start of 30 min exposure, Abbott's formula) came to 22.9%. The knock down in the data set on Blattella germanica (reading at 5′) is given as 0; in the data set on Blattella germanica (reading at 10′) it was 6.7; in the data set with Blattella germanica (reading at 15′), 20; with Blattella germanica (reading at 20′), 40; in the data set with Blattella germanica (reading at 25′) it was 56.7; in the data set with Blattella germanica (reading at 30′), 60.

Values taken from patent publication US10537100B2, “Substituted methylenedioxybenzyl compounds and their use as synergists” (Endura SPA, priority 2015, dated 2020).
